Publication PMC12469269, “Investigating SMR Peptide Interactions with Breast Cancer-Associated Proteins” (International Journal of Molecular Sciences, 2025)
“Also recorded” adds a separate entry of the source.

Legend:
Vimentin = assay: SPR competition: SMRwt binding to immobilized Vimentin with Mortalin peptides; parameters: species or system Human; conditions: 20 µM SMRwt + 20 µM Mortalin peptide, 25 °C, HBS-P pH 7.4
Procedure: (§1) Both Vimentin and Mortalin were immobilized as ligands. We used 20 µM of SMRwt alone and 20 µM of Mortalin peptides alone, and their mixtures were used as analytes.
(§2) Figure 9 Competitive binding of SMR and Mortalin peptides to Vimentin and Mortalin proteins. Binding of SMRwt to immobilized Vimentin in the presence and absence of (A) Mortalin peptide #56, (B) Mortalin peptide #61, and (C) Mortalin peptide #62. Binding of SMRwt to immobilized Mortalin in the presence and absence of (D) Mortalin peptide #56, (E) Mortalin peptide #61, and (F) Mortalin peptide #62. SMRwt alone, as well as a mixture of His-tagged Mortalin peptides #56, #61, and #62 were injected as analytes to flow over the immobilized ligand surfaces. […] Vimentin and Mortalin proteins were immobilized as ligands on a CM5 sensor chip using standard amine coupling chemistry.
(§3) SPR experiments were conducted using a Biacore T200 instrument (Cytiva, Marlborough, MA, USA). CM5 sensor chips (Cytiva) were used to immobilize proteins and run subsequent binding assays at 25 °C. To investigate the direct binding of Nef and SMR peptides to Vimentin and Mortalin and SMR competition studies, both proteins were immobilized as ligands on the active flow cells (FCs) using standard amine coupling chemistry. […] Sensorgrams recorded for kinetics analyses were fitted to a 1:1 binding model using the Biacore T200 evaluation software version 3.2.1. […]

Mortalin = assay: SPR competition: SMRwt binding to immobilized Mortalin with Mortalin peptides; parameters: species or system Human; conditions: 20 µM SMRwt + 20 µM Mortalin peptide, 25 °C, HBS-P pH 7.4
Procedure: as §1, §2, §3

[1] = target: T1, Recombinant Human Vimentin Protein (Homo sapiens, UniProt P08670); assay: biochemical; format: binding; conditions: SPR, 25 °C, HBS-P pH 7.4
T1 construct: purchased Novus Biologicals, LLC/R&D Systems 2105-VI-100
T1 sequence (P08670 whole entry): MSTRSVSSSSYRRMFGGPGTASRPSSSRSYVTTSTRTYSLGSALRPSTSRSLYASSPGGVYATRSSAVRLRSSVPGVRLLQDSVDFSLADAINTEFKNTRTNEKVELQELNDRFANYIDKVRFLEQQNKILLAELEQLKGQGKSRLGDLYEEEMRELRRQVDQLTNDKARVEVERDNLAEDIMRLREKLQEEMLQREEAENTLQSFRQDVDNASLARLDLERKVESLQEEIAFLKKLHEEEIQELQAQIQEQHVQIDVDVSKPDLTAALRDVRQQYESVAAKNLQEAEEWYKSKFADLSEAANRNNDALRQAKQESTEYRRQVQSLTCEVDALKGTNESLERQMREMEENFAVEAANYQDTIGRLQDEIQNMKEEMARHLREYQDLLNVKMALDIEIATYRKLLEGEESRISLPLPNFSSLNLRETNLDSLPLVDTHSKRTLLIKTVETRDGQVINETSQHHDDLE
Source text: (§4) We conducted SPR experiments to characterize and quantify the direct binding interactions between Nef and SMR peptides (the analytes) and the target proteins, Vimentin and Mortalin (the immobilized ligands). We did so by injecting the analytes at various concentrations over the chip surface with the immobilized ligands.
(§5) Recombinant Human Vimentin Protein, CF (catalog # 2105-VI-100), Recombinant Human GRP75/HSPA9B/Mortalin His Protein (catalog # NBC1-18380), and Recombinant Human HSPA8/HSC71/Hsc70 His Protein (Catalog # NBPI-30278) were purchased from Novus Biologicals, LLC/R&D Systems, Centennial, CO, USA. These proteins were used for SPR.
(§6) SPR experiments were conducted using a Biacore T200 instrument (Cytiva, Marlborough, MA, USA). CM5 sensor chips (Cytiva) were used to immobilize proteins and run subsequent binding assays at 25 °C. To investigate the direct binding of Nef and SMR peptides to Vimentin and Mortalin and SMR competition studies, both proteins were immobilized as ligands on the active flow cells (FCs) using standard amine coupling chemistry. One reference FC was prepared using the same surface chemistry, and no proteins were immobilized onto this reference FC. Vimentin was immobilized to a level of ~2500 RU to 7200 RU in the presence of 4 mM of HCl and Mortalin to a level of ~11,900 RU to 13,200 RU in the presence of 10 mM of sodium acetate buffer at pH 4.5. Analytes were then injected (Nef, SMR peptides, Mortalin peptides, and mixtures of […]). One 20 s pulse of 1:500 H3PO4 (H3PO4:ddH2O) was injected for surface regeneration. To investigate the direct binding of Mortalin peptides to Nef, Nef was immobilized as a ligand to ~450 RU using thiol coupling chemistry. A reference FC was created using a method similar to the one above. Mortalin peptides were then injected as analytes. One 20 s pulse of 1 M NaCl was injected for surface regeneration. HBS-P (10 mM Hepes, pH 7.4; 150 mM NaCl; 0.05% surfactant P20) was used as the immobilization running buffer during the immobilization of all ligands. HBS-P was also used to dilute analytes and as a running buffer during all analyte–ligand binding assays. SPR data used for analysis was both blank (signals due to HBS-P only) and reference-subtracted (signals corresponding to reference FCs). Sensorgrams recorded for kinetics analyses were fitted to a 1:1 binding model using the Biacore T200 evaluation software version 3.2.1. GraphPad Prism version 10.4.0 was used to plot all graphs.

[2] = target: T2, Recombinant Human GRP75/HSPA9B/Mortalin His Protein (Homo sapiens, UniProt P38646); assay: biochemical; format: binding; conditions: SPR, 25 °C, HBS-P pH 7.4
T2 construct: His; purchased Novus Biologicals, LLC/R&D Systems NBC1-18380
T2 sequence (P38646 47-679): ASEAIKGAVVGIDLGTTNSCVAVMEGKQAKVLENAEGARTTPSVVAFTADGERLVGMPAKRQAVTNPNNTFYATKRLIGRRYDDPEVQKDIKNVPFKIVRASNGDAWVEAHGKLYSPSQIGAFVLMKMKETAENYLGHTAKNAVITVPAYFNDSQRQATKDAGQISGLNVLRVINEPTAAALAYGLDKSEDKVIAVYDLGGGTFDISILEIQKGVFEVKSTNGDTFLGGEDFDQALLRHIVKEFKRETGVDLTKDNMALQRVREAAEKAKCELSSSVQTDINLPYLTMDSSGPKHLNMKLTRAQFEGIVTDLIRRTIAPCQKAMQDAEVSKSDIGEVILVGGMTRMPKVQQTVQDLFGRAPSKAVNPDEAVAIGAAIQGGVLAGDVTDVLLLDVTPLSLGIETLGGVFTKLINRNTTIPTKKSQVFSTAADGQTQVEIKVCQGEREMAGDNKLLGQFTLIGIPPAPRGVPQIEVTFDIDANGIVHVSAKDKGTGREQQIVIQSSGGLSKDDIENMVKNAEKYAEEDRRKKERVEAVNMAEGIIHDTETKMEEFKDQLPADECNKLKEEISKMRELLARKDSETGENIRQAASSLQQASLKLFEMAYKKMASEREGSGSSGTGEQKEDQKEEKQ
Source text: as §4, §5, §6

Row | Substance | inhibition of SMRwt–Vimentin binding, in words (Vimentin; listed as Mortalin #61) | inhibition of SMRwt–Vimentin binding, in words (Vimentin; listed as Mortalin peptide #61) | inhibition of SMRwt–Mortalin binding, in words (Mortalin; listed as Mortalin #61) | inhibition of SMRwt–Mortalin binding, in words (Mortalin; listed as Mortalin peptide #61) | binding response to Vimentin, in words [1] | binding to Mortalin, in words [2]
1 | DQLPADECNKLKEEISKMRE [#61, Mortalin scanning peptide 61] | effectively compete with SMRwt to block its interaction with the Mortalin or Vimentin protein | inhibited SMRwt binding to both Mortalin and Vimentin; also recorded: completely blocks the 20 µM SMRwt from binding to both Vimentin and Mortalin; also recorded: completely inhibited complex formation between SMRwt and Vimentin | effectively compete with SMRwt to block its interaction with the Mortalin or Vimentin protein | inhibited SMRwt binding to both Mortalin and Vimentin; also recorded: completely blocks the 20 µM SMRwt from binding to both Vimentin and Mortalin; also recorded: complete inhibition |  | 
2 | ^66Ala-Gly-Phe-Pro-Val^70 [SMRmut, 5-mer negative control, Val66 changed to Ala] |  |  |  |  | did not produce a meaningful positive binding response to Vimentin and Mortalin | did not produce a meaningful positive binding response to Vimentin and Mortalin; also recorded: does not bind to the Mortalin protein
